“Also recorded” adds a separate entry of the source.
Assays:
spleen cells = experiment: Type 1 IFN (IFNalphabeta) induction in spleen cells in vitro; format: cell-based
Text: Two forms of the recombinant protein are made; the light chain, heavy chain and HIV Gag with and without flagellin. The TLR7/8 agonist is conjugated to each other resulting in the production of proteins which stimulate CD40/TLR7/8. A proprietary TLR7/8 agonist, called 3M012 (3M Pharmaceuticals Inc, St. Paul Minn.) contains a photoconjugatable linker, which when placed under UV light, conjugates rapidly to terminal amino groups (lysines, arginines, N terminus) in the protein of interest. Conjugation to the TLR7/8 agonist is performed as described previously (Wille-Reece et al., J. Immunol. 174:7676 (2005)). Briefly, recombinant protein is placed in deep well polypropylene 96 well plates (Costar) with 50-100 microliters of 10 mg/ml 3M012 and exposed to longwave UV light for 15 minutes. Following UV exposure, the recombinant protein-TLR7/8 conjugate is washed through a 30 kd cutoff centricon concentrator to remove any free 3M012 and […] molecular weight drug conjugates. The recombinant protein-TLR7/8 conjugates are washed in PBS pH 7.5-8 and analyzed as described above for anti-CD40 and TLR5 activity (for recombinant protein containing flagellin). The amount of 3M012 conjugated to the recombinant protein is determined in vitro by type 1 IFN (IFNalphabeta) induction in spleen cells as previously described (Wille-Reece et al. (Id)).

[1] = system: antigen specific CD8+ T cells; experiment: Immunization of mice with ovalbumin plus TLR and CD40 agonists; antigen-specific CD8+ T cells by tetramer staining; format: in vivo

Row | Substance | IFN alphabeta induction (spleen cells) | synergy with anti-CD40 for inducing CD8+ T cell expansion ([1]; whole ovalbumin + anti-CD40 + TLR agonist) | synergy with anti-CD40 for inducing CD8+ T cell expansion ([1]; mouse, in vivo)
1 | flagellin | does not induce IFN alphabeta | able to synergize with anti-CD40; also recorded: effectively synergizes with anti-CD40 | –
2 | poly IC | – | – | able to synergize with anti-CD40
